# Experimental data: patent publication US20160176924A1, “MODIFIED PEPTIDES AS POTENT INHIBITORS OF THE PSD-95/NMDA RECEPTOR INTERACTION” (priority 2008, published 2016)
# Peptide text beside a SMILES is read from it.
# Columns and labels:
# [1] = Human blood plasma stability assay; type: in vitro ADME
# Protocol: In this assay, the half-life (T1/2) of a compound in blood plasma is measured in vitro, whereby its susceptibility to degradation by proteases, peptidases and general plasma contents is quantified.
# Compounds of interest were dissolved in human blood plasma (270 μl; 3H Biomedical, Sweden, cat no 1300-1-P50) to a concentration of 0.25 mM (30 μL of 2.5 mM) and incubated at 37° C. Aliquots (30 μl) were removed at various time intervals (0, 5, 10, 20, 40, 80, 160, 320, 960, 1280, 2550, 4560 and 7240 min) and quenched with 60 μL trichloroacetic acid (aq., 5%). The aliquots were vortexed, and incubated for at least 15 min, at 4° C. prior to centrifugation at 18,000 g for 2 min and the supernatant was analyzed by RP-HPLC to quantify the remaining compound (absorbance at 218 nm).
# PDZ1-2 tandem of PSD-95 = biological target: T1, PDZ1-2 tandem of PSD-95 (Homo sapiens, UniProt P78352); test: FP heterologous competition binding assay; conditions: mean ± SEM
# T1 construct: PDZ1-2 (residues 61-249) tandem; made in house; host or cells: E. coli BL21-DE3 pLysS
# Excerpt: (§1) Determined IC50 values may be converted to Ki values.^5 Suitable fluorophores include either 5-FAM or Cy5, which may be coupled to a tripeptide (KSG or CSG) linker attached to the N-terminus of the undecapeptide, to give 5-FAM-NR2B, Cy5-NR2B, 5-FAM-CRIPT and Cy5-CRIPT. The 5-FAM fluorophore may be attached to the undecapeptides by coupling with HATU. The Cy5 fluorophore may be conjugated to the undecapeptides by coupling Cy5-maleimide to the cysteine side chain of the tripeptide sequence CSG attached to the N-terminus of the peptide, as detailed in the Methodology section.
# (§2) To measure the affinities between non-fluorescent peptides and PDZ domains, heterologous competition bindings assay were performed. This was done by adding increasing concentrations of peptide to a fixed concentration of Cy5-NR2B, 5-FAM-NR2B, Cy5-CRIPT or 5-FAM-CRIPT (50 nM) and PDZ (20 μM for PDZ1, 3 μM for PDZ2 and 1-2 and 5 μM for PDZ3) in the same TBS buffer and conditions as described above. FP values were then fitted to the general equation: Y=Bottom+(Top−Bottom)/[1[…](10̂^X-logIC50)], where X is the logarithmic value of peptide concentration. Hereby the IC50 value was obtained, which is used to calculate the theoretical competitive inhibition constant, Ki.^5
# (§3) A convenient and reliable way to examine interactions between peptide analogues and PDZ domains is by using a fluorescence polarization (FP) assay. The three PDZ domains, PDZ1-3, of PSD-95 were expressed individually as set out above, while PDZ1-2 was also expressed as a tandem construct. […] IC50 values were then converted to Ki values.^5
# PDZ2 of PSD-95 = biological target: T2, PDZ2 of PSD-95 (Homo sapiens, UniProt P78352); test: FP heterologous competition binding assay; conditions: FP competition; mean ± SEM; NA = no activity/affinity
# T2 construct: PDZ2 (residues 155-249); made in house; host or cells: E. coli BL21-DE3 pLysS
# Excerpt: as §1, §2, §3
# PDZ3 of PSD-95 = biological target: T3, PDZ3 of PSD-95 (Homo sapiens, UniProt P78352); test: FP heterologous competition binding assay; conditions: FP competition; mean ± SEM; NA = no activity/affinity
# T3 construct: PDZ3 (residues 309-401); made in house; host or cells: E. coli BL21-DE3 pLysS
# Excerpt: as §1, §2, §3
# PDZ1 of PSD-95 = biological target: T4, PDZ1 of PSD-95 (Homo sapiens, UniProt P78352); test: FP heterologous competition binding assay; conditions: for Ki: FP competition, mean ± SEM, NA = no activity/affinity
# T4 construct: PSD-95 PDZ1 (residues 61-151); made in house; host or cells: E. coli BL21-DE3 pLysS
# Excerpt: as §1, §2, §3
# [2] = human, plasma, Blood plasma half life (T1/2)
Ki (PDZ1-2 tandem of PSD-95) [nM],Ki (PDZ2 of PSD-95) [nM],"half-life at […] [1, 2] [h]",Structure (SMILES),Ki (PDZ1 of PSD-95) [nM],other results
,,,"CC[C@H](C)[C@H](NC(=O)CCOCCOCCOCCOCCOCCC(=O)N[C@H](C(=O)N[C@@H](C)C(=O)N[C@H](C(=O)N(C)[C@@H](C)C(=O)N[C@H](C(=O)O)C(C)C)[C@@H](C)O)[C@@H](C)CC)C(=O)N[C@@H](C)C(=O)N[C@H](C(=O)N(C)[C@@H](C)C(=O)N[C@H](C(=O)O)C(C)C)[C@@H](C)O [(IATAMeV)2PEG4 (90), (IATAMeV)2PEG4]",,"degradation in human blood plasma, in words [1]: no significant degradation could be detected over a time period of 6 days; half-life [1, 2]: > 133 h"
1100 ± 70,25000 ± 880,2.05,"CC[C@H](C)[C@H](NC(=O)CCOCCOCCOCCOCCOCCC(=O)N[C@H](C(=O)N[C@@H](C)C(=O)N[C@H](C(=O)N[C@@H](C)C(=O)N[C@H](C(=O)O)C(C)C)[C@@H](C)O)[C@@H](C)CC)C(=O)N[C@@H](C)C(=O)N[C@H](C(=O)N[C@@H](C)C(=O)N[C@H](C(=O)O)C(C)C)[C@@H](C)O [(IATAV)2PEG4 (88), (IATAV)2PEG4]",,
1000 ± 60,13000 ± 1100,3.05,"CC[C@H](C)[C@H](NC(=O)CCOCCOCCOCCOCCOCCOCCOCCOCCOCCOCCOCCOCCOCCC(=O)N[C@H](C(=O)N[C@@H](C)C(=O)N[C@H](C(=O)N[C@@H](C)C(=O)N[C@H](C(=O)O)C(C)C)[C@@H](C)O)[C@@H](C)CC)C(=O)N[C@@H](C)C(=O)N[C@H](C(=O)N[C@@H](C)C(=O)N[C@H](C(=O)O)C(C)C)[C@@H](C)O [(IATAV)2PEG12 (87), (IATAV)2PEG12]",,
~100,,> 133,"CC[C@H](C)[C@H](NC(=O)CCOCCOCCOCCOCCOCCOCCOCCC(=O)N[C@H](C(=O)N[C@@H](CCC(=O)O)C(=O)N[C@@H](CO)C(=O)N[C@@H](CC(=O)O)C(=O)N[C@H](C(=O)O)C(C)C)[C@@H](C)CC)C(=O)N[C@@H](CCC(=O)O)C(=O)N[C@@H](CO)C(=O)N[C@@H](CC(=O)O)C(=O)N[C@H](C(=O)O)C(C)C [(IESDV)2PEG6 (77), (IESDV)2PEG6]",,"degradation in human blood plasma, in words [1]: no significant degradation could be detected over a time period of 6 days"
~100,2600 ± 130,> 133,"CC[C@H](C)[C@H](NC(=O)CCOCCOCCOCCOCCOCCOCCOCCOCCOCCC(=O)N[C@H](C(=O)N[C@@H](CCC(=O)O)C(=O)N[C@@H](CO)C(=O)N[C@@H](CC(=O)O)C(=O)N[C@H](C(=O)O)C(C)C)[C@@H](C)CC)C(=O)N[C@@H](CCC(=O)O)C(=O)N[C@@H](CO)C(=O)N[C@@H](CC(=O)O)C(=O)N[C@H](C(=O)O)C(C)C [(IESDV)2PEG8 (76), (IESDV)2PEG8]",,"degradation in human blood plasma, in words [1]: no significant degradation could be detected over a time period of 6 days"
,,,"CC(C)[C@H](NC(=O)[C@H](C)NC(=O)[C@@H](NC(=O)[C@H](C)N)[C@@H](C)O)C(=O)O [ATAV (68), ATAV] (H-ATAV-OH; C-terminus assumed)",,Ki (PDZ3 of PSD-95): ≥ 400000 nM
,,0.283 to 0.917,CC(C)[C@H](NC(=O)[C@H](CC(=O)O)NC(=O)[C@H](CO)NC(=O)[C@@H](N)CCC(N)=O)C(=O)O [Compound 29] (H-QSDV-OH),,
,,,"CCCN[C@@H](CCC(=O)O)C(=O)N[C@H](C(=O)N[C@@H](C)C(=O)N[C@H](C(=O)O)C(C)C)[C@@H](C)O [Compound 53, N-Propyl-ETAV]",7000 ± 280,
,,,"CC(C)[C@H](NC(=O)[C@H](C)NC(=O)[C@@H](NC(=O)[C@H](CCC(=O)O)NCC1CCCCC1)C(C)O)C(=O)O (some centres unmarked) [Compound 55, N-Cyclohexylmethyl-ETAV]",1000 ± 240,"fold increase in affinity (more potent) compared to NR2B peptide (1), PDZ1 (PDZ1 of PSD-95): ca. 19 fold; Ki (PDZ3 of PSD-95): 21000 ± 640 nM"
,3100 ± 310,,"CC(C)[C@H](NC(=O)[C@H](C)NC(=O)[C@@H](NC(=O)[C@H](CCC(=O)O)NCCCc1ccccc1)C(C)O)C(=O)O (some centres unmarked) [Compound 60, N-Phenylpropyl-ETAV]",2100 ± 350,

Structure (SMILES),Ki (PDZ1-2 tandem of PSD-95) [nM],Ki (PDZ2 of PSD-95) [nM],"half-life at […] [1, 2] [h]",Ki (PDZ1 of PSD-95) [nM],other results
CC(C)[C@H](NC(=O)[C@H](C)NC(=O)[C@@H](NC(=O)[C@H](CCC(=O)O)NCCc1ccc(Cl)c(Cl)c1)C(C)O)C(=O)O (some centres unmarked) [Compound 61],,1100 ± 110,,,
CC(C)[C@H](NC(=O)[C@H](C)NC(=O)[C@@H](NC(=O)[C@H](CCC(=O)O)NCCc1ccc(F)c(F)c1)C(C)O)C(=O)O (some centres unmarked) [Compound 62],,1000 ± 43,,~1000,
